Measured values from US11639325B2, “Compositions of polyhydroxylated benzophenones and methods of treatment of neurodegenerative disorders” (Massachusetts Institute of Technology, priority 2015, dated 2023).
“Also recorded” adds a separate entry of the source. Read-outs that look alike come from different tables or passages of the source. Each block holds one compound with its values, some of them ahead of it.

Legend:
HDAC1 = target: T1, HDAC1 (Homo sapiens, UniProt Q13547); assay: RapidFire Mass Spec assay of HDAC1 deacetylase activity with acetylated peptide substrates; assay type: biochemical; conditions: for HDAC1 activation (deacetylase activity): Bio-H4K12ac and bio-p53K382ac peptide substrates; for reversal of HDAC1 inhibition by CI-994: HDAC1 preincubated with exifone 1 or 10 μM, or with CI-994 1, 5 or 10 μM for 2 hours
T1 construct: purchased BPS Biosciences (San Diego, Calif.)
T1 sequence (Q13547 whole entry): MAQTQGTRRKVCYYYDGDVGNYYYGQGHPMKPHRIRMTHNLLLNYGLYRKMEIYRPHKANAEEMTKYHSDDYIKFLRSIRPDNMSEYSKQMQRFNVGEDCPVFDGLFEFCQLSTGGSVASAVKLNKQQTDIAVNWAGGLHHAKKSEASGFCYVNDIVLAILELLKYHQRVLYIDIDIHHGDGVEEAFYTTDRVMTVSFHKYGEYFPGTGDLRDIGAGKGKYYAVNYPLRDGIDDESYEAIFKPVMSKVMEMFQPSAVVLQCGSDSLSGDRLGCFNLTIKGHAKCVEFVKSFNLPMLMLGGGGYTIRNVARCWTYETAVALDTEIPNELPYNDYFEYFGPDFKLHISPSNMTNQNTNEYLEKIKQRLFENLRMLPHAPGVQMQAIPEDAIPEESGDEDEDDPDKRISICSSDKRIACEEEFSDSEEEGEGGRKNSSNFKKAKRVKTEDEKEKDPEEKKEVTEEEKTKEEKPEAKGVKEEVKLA
Protocol: (§1) Bio-H4K12ac and Bio-p53K382ac peptides were purchased from Anaspec (Fremont, Calif.). Recombinant HDAC1 and HDAC2 were from BPS Biosciences (San Diego, Calif.). Biochemical assays for evaluation of enzyme activity were performed in 384-well microplates (Perkin Elmer, Waltham, Mass.). A high throughput mass spectrometry assay based on RapidFire™ platform (Agilent Technology, Wakefield, Mass.) was used for analysis of HDAC activity with acetylated peptide substrates derived from histone Bio-H4K12ac (Anaspec #64849) and non-histone Bio-p53K382ac (Anaspec #65046) sequences.
For determination of dose dependence curves, test compounds were preincubated with HDAC1 for 15 minutes. Histone deacetylase reactions were performed following addition of acetylated peptide substrate. The reactions were performed in standard 384-well plates in 50 μl volume with an assay buffer containing 50 mM Tris, pH 7.4, 100 mM KCl, and 0.01% Brij-35. Enzyme reactions were terminated by adding 5 μl of 10% formic acid. Experiments designed to determine the mechanism of action used a varied range of substrate and test compound concentrations. For determining the dose response of individual compounds, HDAC1 reactions were performed with 1 μM of the acetylated peptide substrate for durations ranging from 45 mins for Bio-p53K382ac and 60 minutes for Bio-H4K12ac, with the aim of keeping the substrate conversion below 10%.
For Mass Spec based detection, assay plates were transferred onto a high throughput RapidFire200 integrated autosampler/solid-phase extraction (SPE) system (Agilent Technologies, Wakefield, Mass.) coupled to an API4000 triple quadrupole mass spectrometer (Applied Biosystems, Concord, Ontario, Canada). Additional details for the RapidFire MS analysis are described elsewhere (Rye et al. Advances in label-free screening approaches for studying sirtuin-mediated deacetylation. J Biomol Screen. 2011 December; 16(10):1217-26; Rye et al. Advances in label-free screening approaches for studying histone acetyltransferases. J Biomol Screen. 2011 December; 16(10):1186-95). The peaks detected by Mass Spec were integrated and processed with RapidFire peak integration software (Agilent).
Percentage of substrate conversion was estimated from the RapidFire HTMS assay as a function of product and substrate mass spectrum peak areas and is equal to 100*[Product/(Product+Substrate)]. Percentage of enzyme activation=[(MIN-test compound)/(MIN−MAX)*100], where MINimal (0%) enzyme activity is observed in the presence of a histone deacetylase inhibitor [10 μM SAHA (suberoylanilide hydroxamic acid), SAHA; Vorinostat] and MAXimal enzyme activity of HDAC1 reaction in absence of test compound as 100% activity. MAX and MIN values were calculated from an average of 16 wells of a single column of 384 well plate. Data were analyzed and plotted using Graphpad Prism 6.
Activator potencies were compared by estimating the EC^1.5 values as a function of EC50 values and maximum relative velocity (RVmax) (Dai et al, 2010). EC^1.5 is the concentration of the activator required to achieve 1.5 fold activation (Dai et al, 2010). Data on enzyme activation were analyzed using non-essential enzyme activation (Segel, (1975) Enzyme Kinetics, John Wiley, New York).

HDAC2 = target: T2, HDAC2 (Homo sapiens, UniProt Q92769); assay: RapidFire Mass Spec assay of HDAC2 deacetylase activity; assay type: biochemical; conditions: FIG. 4; read-out: EC50 for HDAC2 activation
T2 construct: purchased BPS Biosciences (San Diego, Calif.)
T2 sequence (Q92769 whole entry): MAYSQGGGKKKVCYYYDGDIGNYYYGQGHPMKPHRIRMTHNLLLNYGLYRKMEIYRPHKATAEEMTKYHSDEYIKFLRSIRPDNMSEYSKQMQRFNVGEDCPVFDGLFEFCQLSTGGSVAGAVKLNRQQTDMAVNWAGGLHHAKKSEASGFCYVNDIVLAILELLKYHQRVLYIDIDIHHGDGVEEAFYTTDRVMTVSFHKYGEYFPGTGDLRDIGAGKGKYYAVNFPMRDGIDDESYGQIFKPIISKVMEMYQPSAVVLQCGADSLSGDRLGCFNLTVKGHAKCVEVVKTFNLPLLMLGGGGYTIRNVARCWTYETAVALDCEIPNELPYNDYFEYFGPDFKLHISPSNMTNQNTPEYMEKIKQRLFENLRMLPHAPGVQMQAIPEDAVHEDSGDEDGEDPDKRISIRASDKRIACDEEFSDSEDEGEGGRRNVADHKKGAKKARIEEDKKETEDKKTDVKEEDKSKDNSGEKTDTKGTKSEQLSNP
Protocol: as §1
For determination of dose dependence curves, test compounds were preincubated with HDAC1 for 15 minutes. […]
For Mass Spec based detection, assay plates were transferred onto a high throughput RapidFire200 integrated autosampler/solid-phase extraction (SPE) system (Agilent Technologies, Wakefield, Mass.) coupled to an API4000 triple quadrupole mass spectrometer (Applied Biosystems, Concord, Ontario, Canada). […] The peaks detected by Mass Spec were integrated and processed with RapidFire peak integration software (Agilent).
Percentage of substrate conversion was estimated from the RapidFire HTMS assay as a function of product and substrate mass spectrum peak areas and is equal to 100*[Product/(Product+Substrate)]. […] MAX and MIN values were calculated from an average of 16 wells of a single column of 384 well plate. […]

cultured neurons = assay: Immunostaining for γH2AX (DNA double-stranded breaks) in cultured neurons; assay type: cell-based
CK-p25 mice = assay: CK-p25 mouse model of neurodegeneration: immunohistochemistry and fear conditioning; assay type: in vivo
Protocol: (§2) For contextual fear conditioning, mice were put in the conditioning chamber (TSE systems) for 3 min, after which they received a one-time footshock (2 s, 0.8 mA). After 24 hr in the home cage, mice were placed in the same chamber and the freezing bouts, defined as a total lack of movement except for a heartbeat and respiration, were scored during every 10 s during a 3 min period.
(§3) Cued fear conditioning was performed by placing the animals in the test chamber for 3 min following exposure to the auditory cue (30 s, 20 kHz, 75 db sound pressure level) and a foot shock (2 s, 0.8 mA). Associative learning was assessed 24 hr later by placing the mice in the modified chamber and delivery of the identical auditory cue for 3 min.
CK-p25 mice are characterized by massive neuronal loss and severe memory impairment after 6 weeks of the p25 transgene induction (Cruz et al. Aberrant Cdk5 activation by p25 triggers pathological events leading to neurodegeneration and neurofibrillary tangles. Neuron. 2003 Oct. 30; 40(3):471-83). Exifone was chronically administered in CK-p25 mice, model, 3-month-old CK-p25 mice and control mice (no p25 overexpression) were induced for 6 weeks. They received either daily Exifone or vehicle for 3 weeks from week 3 to 6 during the induction period (FIG. 8A).
The associative memory in mice was examined by the contextual fear conditioning test described in Example 3. Mice were treated with vehicle control or exifone and freezing behavior observed 24 hours after contextual fear conditioning training.

5XFAD mice [1] = assay: 5XFAD mice behavioral tests (open field, contextual and cued fear conditioning); assay type: in vivo, mouse; conditions: 50 mg/kg i.p. for 2 weeks
Protocol: 8-month-old males (WT or 5XFAD mice) received daily for two weeks of full treatment either vehicle (80% saline, 10% DMSO, 10% Tween-80) or exifone (FIG. 1A) (50 mg/kg). Administration was by intraperitoneal injection for 2 weeks. After 2 weeks of treatment, mice were handled more than 3 days before each behavioral test.
Open field test was monitored by TSE Multi Conditioning System, total distance traveled and the number of visits in center were measured using automated activity monitors.
To assess memory formation, fear-conditioning tests in rodents were used. In these paradigms, the extent of freezing behavior, which is defined as the complete lack of movement other than from respiration upon re-exposure to an aversive stimulus (e.g. mild foot shock) and an environmental cue in the form of a specific context (e.g. test chamber) or cue (e.g. a tone), provides an assessment of the strength of memory. […]
as §2, §3
Behavioral tests were performed on vehicle treated wild type (WT) mice and 5XFAD mice treated with either vehicle control or exifone. […] In both contexts, freezing behavior of the mice was scored for examination memory.

5XFAD mice [2] = assay: Western blotting of hippocampi of treated 5XFAD mice (histone deacetylation); assay type: in vivo, mouse; conditions: 50 mg/kg i.p. for 2 weeks
Protocol: To determine the effects of restoration of HDAC1 activity in 5XFAD mice, mice were treated with exifone. Briefly, eight-month-old mice were administered doses of 50 mg/kg body weight exifone or vehicle control (10% DMSO, 10% Tween-80 and 80% saline) by intraperitoneal injection for 2 weeks. After 2 weeks of treatment, hippocampi were dissected and homogenized in RIPA buffer for Western blotting (FIGS. 10B and 10C).

5XFAD mice [3] = assay: LTP recording in hippocampal slices of treated 5XFAD mice; assay type: in vivo, mouse; conditions: thirteen-month-old 5XFAD mice, 50 mg/kg i.p. for 2 weeks
Protocol: Thirteen-month-old mice were administered doses of 50 mg per kg body weight exifone or vehicle by intraperitoneal injection for 2 weeks before long-term potentiation (LTP) recordings. For LTP recording, mice were anesthetized with isoflurane and decapitated. Transverse hippocampal slices (400 μm thick) were prepared in ice-cold dissection buffer (in mM: 211 sucrose, 3.3 KCl, 1.3 NaH2PO4, 0.5 CaCl2, 10 MgCl2, 26 NaHCO3 and 11 glucose) using a Leica VT1000S vibratome (Leica). Slices were recovered in a submerged chamber with 95% O2/5% CO2-saturated artificial cerebrospinal fluid (ACSF) consisting of (in mM) 124 NaCl, 3.3 KCl, 1.3 NaH2PO4, 2.5 CaCl2, 1.5 MgCl2, 26 NaHCO3 and 11 glucose for 1 h at 28-30° C. For extracellular LTP recording, CA1 field potentials evoked by Schaffer collateral stimulation with bipolar electrode was measured every 30 s. After recording of stable baseline for 15 min, LTP was induced by single theta-burst stimulations (TBS, containing 10 brief bursts which consisted of four pulses at 100 Hz).

[4] = test system: Human induced pluripotent stem cell (iPSC)-derived neurons; assay: Viability (Alamar Blue) of human iPSC-derived neurons under rotenone stress; assay type: cell-based
Source text: To further determine the effects of exifone on neurodegenerative disorders like frontotemporal dementia, Alzheimer's disease, and Parkinson's disease, a cellular model of mitochondrial dysfunction and tauopathy was used. Human induced pluripotent stem cell (iPSC)-derived neurons from a healthy control (FIG. 15A) and a frontotemporal dementia patient with a mutation in tau (FIG. 15B) were differentiated in culture for eight weeks (See Silva et al., Stem Cell Reports, 2016). […] Cell viability was measured by Alamar Blue (4 h) assay±SD. Statistical Analysis: Student T-Test; ^nsP>0.05, *P<0.05, **P<0.01, ***P<0.001; n=2 and technical triplicates.

[5] = increasing exifone concentrations
[6] = AD mice model (CK-p25 mice) as printed

maximal activation of HDAC1 (HDAC1; 2 hour incubation of HDAC1 at room temperature prior to addition to reaction mix): up to nine fold | selectivity for HDAC1 activation compared with HDAC2 (HDAC1; FIG. 4): at least four fold more selective | EC50 (HDAC1; FIG. 4, read-out: EC50 for HDAC1 activation (selectivity experiment)): 20 nM | EC50 (HDAC1; FIGS. 1B and 1D, 2 hour incubation of HDAC1 at room temperature prior to addition to reaction mix, read-out: EC50 of HDAC1 activation): 45 nM | reversal of HDAC1 inhibition by CI-994 (HDAC1): capable of reversing inhibition | reversal of HDAC1 inhibition by CI-994 (HDAC1; listed as Exifone): partially reversed the inhibitory effect | HDAC1 activation at high substrate concentration (HDAC1; bio-H4K12ac peptide concentrations of 125 and 250 μM): No activation was observed | Vmax of HDAC1 reaction (HDAC1; [5]): increased the Vmax | apparent Km for the bio-H4K12ac peptide (HDAC1; [5]): decreased the apparent Km | mechanism of HDAC1 activation (HDAC1; varied substrate and activator concentrations): mixed non-essential reaction | EC50 (HDAC2): 82 nM | basal locomotion in the open-field test (CK-p25 mice; [6]): without an effect on basal locomotion | open-field total distance traveled and number of visits to the center (5XFAD mice [1]): no effect on either of these parameters
SMILES: O=C(c1cc(O)c(O)c(O)c1)c1ccc(O)c(O)c1O [exifone]
HDAC1 activation (deacetylase activity) (HDAC1): dose-dependent increase in HDAC1 activation; also recorded: potent small molecule activator of HDAC1; also recorded: increases the deacetylase activity of HDAC1 | rate of HDAC1-mediated deacetylation (substrate conversion) (HDAC1; substrate 1 μM, HDAC1 40 nM, exifone 0.05 μM vs control): increased the rate of HDAC1-mediated reactions compared to control conditions; also recorded: increases the rate of deacetylation reaction by HDAC1 | γH2AX intensity (DNA damage) (cultured neurons): significantly reduced the intensity of γH2AX; also recorded: protection from DNA damage | cognitive function in cued fear-conditioning test (CK-p25 mice; [6]): not in cued fear-conditioning test | freezing behavior / cognitive function in contextual fear conditioning test (CK-p25 mice; CK-p25 mice, 24 hours after training): enhances the cognitive function; also recorded: comparable freezing behavior to vehicle-treated or exifone-treated control mice | neuronal loss / markers of neurodegeneration (γH2A.X, NeuN, Hoechst) in hippocampus (CK-p25 mice; CK-p25 mice, daily for 3 weeks during p25 induction): significantly ameliorated neuronal loss; also recorded: significant reduction of these markers of neurodegeneration; also recorded: ameliorates neuronal loss | freezing response in conditioned (contextual) fear conditioning test (5XFAD mice [1]): significantly increased | freezing response in cued fear conditioning test (5XFAD mice [1]): significantly increased | histone deacetylation and HDAC1 activity in hippocampus (5XFAD mice [2]): trend towards increased histone deacetylation and HDAC1 activity | LTP induction (5XFAD mice [3]): reinstatement of LTP induction | rescue of viability of tauopathy patient-derived neurons from rotenone-induced stress ([4]; 8 hours pre-treatment, then 18 hour rotenone, multiple doses): rescued the vulnerability

SMILES: C=C(C)[C@H]1Cc2c(ccc3c2O[C@@H]2COc4cc(OC)c(OC)cc4[C@@H]2C3=O)O1 [rotenone]
decrease in viability of tauopathy patient-derived neurons ([4]; rotenone, 18 hour): > 50%

SMILES: O=C(c1ccccc1)c1ccccc1 [Benzophenone]
HDAC1 activation (deacetylase activity) (HDAC1): did not cause HDAC1 activation | HDAC1 activation (deacetylase activity) (HDAC1; listed as non-hydroxylated benzophenone): does not
